The target of data set [1] is T1, CAI (Homo sapiens, UniProt P00915).
T1 construct: made in house; host or cells: E. coli
In words: biochemical. The note with it: for Intrinsic Gibbs energy change (ΔGint), CAI: 37 °C, calculated (Equation 5); for Kd: FTSA, pH 7.0, 37 °C, read-out: Observed Dissociation Constant (Kd_obs), CAI. The format is binding.
Procedure: (§1) Human CA isozymes were expressed in E. coli (CAI, II, III, IV, VA, VB, VII, XII, XIII, XIV) or mammalian cells (CAVI and CAIX), chromatographically purified following the published protocols [47], and stored at −80 °C. The protein concentration was determined by UV absorption at 280 nm using Beer–Lambert law.
(§2) The QIAGEN Rotor-Gene Q was used to carry out the experiments, with a blue channel used for excitation (365 nm) and detection (460 nm). FTSA in this case relies on an extrinsic probe, 8-anilino-1-naphthalenesulfonate (ANS), to detect the fluorescence increase during protein denaturation, from which protein melting temperature (Tm) can be determined. […] The observed affinity of ligands for CAs was determined by plotting the Tm as a function of ligand concentration and then fitting a curve as described previously [48]. […] Samples were heated from 25 °C to 99 °C at the speed of 1 °C/min.
(§3) The intrinsic thermodynamic parameters were calculated as described in [40]. The intrinsic reaction of inhibitor binding to CA is shown in Equation (1).
(§4) When calculating Kd_int values, these protein and ligand fractions from Equation (1) have to be accounted for (Equations (2) and (3)). The intrinsic dissociation constant is calculated by multiplying Kd_obs value by the corresponding fractions of protein and ligand (Equation (4)). (2) fRSO2NH^−=10^pH−pKa_RSO2NH2/1+10^pH−pKa_RSO2NH2 (3) fCAZnH2O=1−10^pH−pKa_CAZnH2O/1+10^pH−pKa_CAZnH2O (4) Kd_int=Kd_obs×fRSO2NH^−×fCAZnH2O (5) ΔGint0=RTlnKd_int
(§5) The intrinsic standard Gibbs energy changes upon binding were calculated using Equation (5). Here, R—universal ideal gas constant (8.3144 J/mol·K), T—absolute temperature (310.15 K).

For data set [2], the target named is T2, CAII (Homo sapiens, UniProt P00918).
T2 construct: made in house; host or cells: E. coli
In words: biochemical. It counts as binding. To be noted: for Intrinsic Gibbs energy change (ΔGint), CAII: 37 °C, calculated (Equation 5); for Kd: FTSA, pH 7.0, 37 °C, read-out: Observed Dissociation Constant (Kd_obs), CAII.

Another data set has as its target T3, CAIII (Homo sapiens, UniProt P07451).
T3 construct: made in house; host or cells: E. coli
Kind of data set: Fluorescent thermal shift assay (FTSA), CAIII. The note with it: FTSA, pH 7.0, 37 °C; read-out: Observed Dissociation Constant (Kd_obs), CAIII. The format is binding.

Another data set has as its target T4, CAIV (Homo sapiens, UniProt P22748).
T4 construct: made in house; host or cells: E. coli
In words: Fluorescent thermal shift assay (FTSA), CAIV.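 For all read-outs here: recombinant human enzyme, thermal denaturation followed by ANS fluorescence, melting temperature versus ligand concentration fitted for Kd_obs, intrinsic value corrected for deprotonated sulfonamide and Zn-bound water fractions.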 The format is binding. To be noted: for Intrinsic Gibbs energy change (ΔGint), CAIV: 37 °C, calculated (Equation 5); for Kd: FTSA, pH 7.0, 37 °C, read-out: Observed Dissociation Constant (Kd_obs), CAIV.

The next data set has as its target T5, CAVA (Homo sapiens, UniProt P35218).
T5 construct: made in house; host or cells: E. coli
Kind of data set: Fluorescent thermal shift assay (FTSA), CAVA. The format is binding. To be noted: for Kd: FTSA.

Data set [3] concerns the target T6, CAVB (Homo sapiens, UniProt Q9Y2D0).
T6 construct: made in house; host or cells: E. coli
Kind of data set: Fluorescent thermal shift assay (FTSA), CAVB. It counts as binding. To be noted: for Intrinsic Gibbs energy change (ΔGint), CAVB: 37 °C, calculated (Equation 5); for Kd: FTSA, pH 7.0, 37 °C, read-out: Observed Dissociation Constant (Kd_obs), CAVB.
Procedure: as §1, §2
(§6) The intrinsic thermodynamic parameters were calculated as described in [40]. The intrinsic reaction of inhibitor binding to CA is shown in Equation (1). […] It is known that CA proteins bind sulfonamides only when water molecules are coordinated to the Zn(II) ion, and sulfonamides only bind to CA proteins when their amino group is deprotonated (confirmed by neutron crystallography [53, 54, 55]):(1) CA Zn^II−H2O+RSO2NH^−⇄ CA Zn^II−NH SO2R+H2O
as §4, §5

For another data set, the target named is T7, CAVI (Homo sapiens, UniProt P23280).
T7 construct: made in house
Kind of data set: Fluorescent thermal shift assay (FTSA), CAVI.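 For all read-outs here: human CAVI expressed in mammalian cells, ANS fluorescence tracked during thermal unfolding, melting temperature fitted against ligand concentration, intrinsic values corrected for deprotonated sulfonamide and Zn-bound water fractions.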 It counts as binding. To be noted: for Intrinsic Gibbs energy change (ΔGint), CAVI: 37 °C, calculated (Equation 5); for Kd: FTSA, pH 7.0, 37 °C, read-out: Observed Dissociation Constant (Kd_obs), CAVI.

A further data set deals with T8, CAVII (Homo sapiens, UniProt P43166).
T8 construct: made in house; host or cells: E. coli
In words: Fluorescent thermal shift assay (FTSA), CAVII. To be noted: for Intrinsic Gibbs energy change (ΔGint), CAVII: 37 °C, calculated (Equation 5); for Kd: FTSA, pH 7.0, 37 °C, read-out: Observed Dissociation Constant (Kd_obs), CAVII. It counts as binding.

Data set [4] concerns the target T9, CAIX (Homo sapiens, UniProt Q16790).
T9 construct: made in house
Kind of data set: biochemical. It counts as binding. To be noted: for Intrinsic Gibbs energy change (ΔGint), CAIX: 37 °C, calculated (Equation 5); for Kd: FTSA, pH 7.0, 37 °C, read-out: Observed Dissociation Constant (Kd_obs), CAIX.
Procedure: as §1, §2, §3, §4, §5

Data set [5] deals with T10, CAXII (Homo sapiens, UniProt O43570).
T10 construct: made in house; host or cells: E. coli
In words: biochemical. The format is binding. To be noted: for Intrinsic Gibbs energy change (ΔGint), CAXII: 37 °C, calculated (Equation 5); for Kd: FTSA, pH 7.0, 37 °C, read-out: Observed Dissociation Constant (Kd_obs), CAXII.
Procedure: as §1, §2, §3, §4, §5

The target of the next data set is T11, CAXIV (Homo sapiens, UniProt Q9ULX7).
T11 construct: made in house; host or cells: E. coli
In words: Fluorescent thermal shift assay (FTSA), CAXIV.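 For all read-outs here: recombinant human CA XIV from E. coli, ANS-based thermal shift: Kd_obs fitted from melting temperature versus ligand concentration, ΔGint from Kd_obs corrected for deprotonated sulfonamide and Zn-water fractions.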 The format is binding. To be noted: for Intrinsic Gibbs energy change (ΔGint), CAXIV: 37 °C, calculated (Equation 5); for Kd: FTSA, pH 7.0, 37 °C, read-out: Observed Dissociation Constant (Kd_obs), CAXIV.

Data set [6] addresses T6, CAVB. Kind of data set: Isothermal titration calorimetry (ITC), CAVB. The format is binding. The note with it: pH 7.0, 37 °C.
Data set [7] in a line: Determination of compound sulfonamide group pKa (UV-Vis spectra at different pH). The format is physicochemical. To be noted: universal buffer; spectrophotometric, 37 °C; read-out: Sulfonamide pKa. As for the experimental part: To calculate the intrinsic thermodynamic parameters of compound binding to CA isozymes, the pKa values of the sulfonamide group and the water molecule bound to the Zn(II) ion at the active site of CA proteins had to be determined. The pKa values for CA isozyme-bound water molecules were taken from, CAI—8.1; CAII—6.9; CAIII—6.5; CAIV—6.6; CAVA—6.7; CAVB—7.0; CAVI—6.0; CAVII—6.8; CAIX—6.6; CAXII—6.8; CAXIII—8.0; CAXIV—6.1. […] The pKa values were calculated as described previously in [28, 52] by normalizing the absorbance, plotting it as a function of pH, then fitting to the Henderson–Hasselbalch equation using the least square method (Figure S105).
Since the pKa values were only able to be measured for compound group 26–36, due to universal buffer pH limitations, intrinsic thermodynamic parameters were not calculated for compounds 2(a,b)–25(a,b), only for compounds 26–36 using experimentally obtained pKa values when possible and using the average pKa value mentioned above for compounds not measured.

The target in data set [8] is T12, CAXIII (Homo sapiens, UniProt Q8N1Q1). To be noted: 37 °C; calculated (Equation 5).
Procedure: as §1, §2, §3, §4, §5
Data set [9] concerns the target T12, CAXIII. In words: biochemical. To be noted: Observed Dissociation Constant (Kd_obs), FTSA, pH 7.0, 37 °C.
Procedure: as §1, §2, §3, §4, §5
The target in data set [10] is T1, CAI. The note with it: FTSA, pH 7.0, 37 °C; taken from previous publication; read-out: Observed Dissociation Constant (Kd_obs), CAI; cited from earlier work.
Data set [11] concerns the target T2, CAII. The note with it: FTSA, pH 7.0, 37 °C; taken from previous publication; read-out: Observed Dissociation Constant (Kd_obs), CAII; cited from earlier work.
For data set [12], the target named is T9, CAIX. To be noted: FTSA, pH 7.0, 37 °C; taken from previous publication; read-out: Observed Dissociation Constant (Kd_obs), CAIX; cited from earlier work.
The target in data set [13] is T10, CAXII. The note with it: FTSA, pH 7.0, 37 °C; taken from previous publication; read-out: Observed Dissociation Constant (Kd_obs), CAXII; cited from earlier work.
Data set [14] concerns the target T12, CAXIII. To be noted: read-out: Observed Dissociation Constant (Kd_obs), CAXIII; FTSA, pH 7.0, 37 °C; taken from previous publication; cited from earlier work.
The target in data set [15] is T2, CAII. Kind of data set: Isothermal titration calorimetry (ITC), CAII. It counts as binding. The note with it: pH 7.0, 37 °C, read-out: Observed Dissociation Constant (Kd_obs), CAII, ITC data in brackets.
Where [16] appears, read: pH 7.0, 37 °C, read-out: Observed Dissociation Constant (Kd_obs), CAVA.

Like-named read-outs stand apart in the source and are kept apart here.
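Throughout, for Intrinsic Gibbs energy change (ΔGint), CAII: recombinant human CAII, thermal shift with ANS dye fluorescence, Kd_obs from fitting melting temperature versus ligand concentration, intrinsic values corrected for deprotonated sulfonamide and Zn-bound water fractions.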
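Throughout, for Intrinsic Gibbs energy change (ΔGint), CAXIII: recombinant human CAXIII melting temperature tracked by ANS fluorescence in thermal shift assay, Tm fitted against ligand concentration, intrinsic value corrects Kd for deprotonated sulfonamide and Zn-bound water fractions.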

T11 sequence (Q9ULX7 16-337): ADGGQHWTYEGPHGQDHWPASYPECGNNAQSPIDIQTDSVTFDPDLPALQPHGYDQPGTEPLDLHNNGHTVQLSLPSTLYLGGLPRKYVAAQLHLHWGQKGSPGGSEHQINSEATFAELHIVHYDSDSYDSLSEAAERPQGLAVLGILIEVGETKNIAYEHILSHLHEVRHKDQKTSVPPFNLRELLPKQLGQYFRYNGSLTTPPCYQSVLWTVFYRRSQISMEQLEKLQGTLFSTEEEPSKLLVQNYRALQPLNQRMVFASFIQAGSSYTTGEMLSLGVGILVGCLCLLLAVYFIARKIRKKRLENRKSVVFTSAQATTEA
T3 sequence (P07451 whole entry): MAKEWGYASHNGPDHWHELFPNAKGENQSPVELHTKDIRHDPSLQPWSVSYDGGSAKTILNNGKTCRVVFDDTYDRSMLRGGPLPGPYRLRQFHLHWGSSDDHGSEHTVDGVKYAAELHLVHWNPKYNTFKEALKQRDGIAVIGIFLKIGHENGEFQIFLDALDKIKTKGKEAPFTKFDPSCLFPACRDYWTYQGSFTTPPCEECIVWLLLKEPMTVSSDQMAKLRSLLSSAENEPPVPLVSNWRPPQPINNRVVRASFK
T12 sequence (Q8N1Q1 whole entry): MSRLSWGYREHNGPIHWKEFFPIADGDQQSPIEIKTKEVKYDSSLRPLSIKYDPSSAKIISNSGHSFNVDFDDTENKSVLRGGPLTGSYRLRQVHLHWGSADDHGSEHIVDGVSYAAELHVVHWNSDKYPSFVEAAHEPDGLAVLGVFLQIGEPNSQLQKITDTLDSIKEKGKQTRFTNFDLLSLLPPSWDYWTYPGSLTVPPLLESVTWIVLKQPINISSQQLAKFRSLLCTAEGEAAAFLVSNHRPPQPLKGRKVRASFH
T1 sequence (P00915 whole entry): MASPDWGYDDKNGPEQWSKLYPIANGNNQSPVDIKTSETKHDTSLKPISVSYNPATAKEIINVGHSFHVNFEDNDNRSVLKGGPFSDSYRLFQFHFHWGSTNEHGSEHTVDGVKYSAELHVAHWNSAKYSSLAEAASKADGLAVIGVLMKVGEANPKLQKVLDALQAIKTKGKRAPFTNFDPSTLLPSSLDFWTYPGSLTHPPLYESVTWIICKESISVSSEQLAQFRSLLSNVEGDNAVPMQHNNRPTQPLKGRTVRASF
T5 sequence (P35218 39-305): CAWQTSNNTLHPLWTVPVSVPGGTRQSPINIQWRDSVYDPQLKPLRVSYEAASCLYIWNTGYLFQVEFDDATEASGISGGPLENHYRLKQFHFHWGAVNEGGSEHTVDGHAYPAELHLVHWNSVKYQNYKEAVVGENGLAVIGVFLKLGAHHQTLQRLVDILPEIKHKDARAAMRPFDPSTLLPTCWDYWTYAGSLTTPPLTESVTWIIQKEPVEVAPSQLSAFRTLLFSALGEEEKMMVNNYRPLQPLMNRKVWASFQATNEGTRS
T6 sequence (Q9Y2D0 34-317): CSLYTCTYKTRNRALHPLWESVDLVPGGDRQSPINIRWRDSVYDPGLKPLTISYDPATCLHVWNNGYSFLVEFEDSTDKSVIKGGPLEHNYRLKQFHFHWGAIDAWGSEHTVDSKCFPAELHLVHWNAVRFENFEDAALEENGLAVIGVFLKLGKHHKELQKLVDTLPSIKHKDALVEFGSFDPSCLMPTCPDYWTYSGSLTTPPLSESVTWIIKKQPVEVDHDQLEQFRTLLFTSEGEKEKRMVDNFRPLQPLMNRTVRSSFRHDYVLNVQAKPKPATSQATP
T4 sequence (P22748 19-312): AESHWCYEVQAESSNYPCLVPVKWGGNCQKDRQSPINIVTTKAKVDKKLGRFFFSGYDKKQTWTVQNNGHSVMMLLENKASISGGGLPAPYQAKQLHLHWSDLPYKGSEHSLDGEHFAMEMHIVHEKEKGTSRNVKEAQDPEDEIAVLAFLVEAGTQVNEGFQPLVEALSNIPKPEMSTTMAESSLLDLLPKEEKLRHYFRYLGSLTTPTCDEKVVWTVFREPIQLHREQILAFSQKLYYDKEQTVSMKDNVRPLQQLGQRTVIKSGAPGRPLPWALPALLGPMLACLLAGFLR
T7 sequence (P23280 21-290 limits assumed): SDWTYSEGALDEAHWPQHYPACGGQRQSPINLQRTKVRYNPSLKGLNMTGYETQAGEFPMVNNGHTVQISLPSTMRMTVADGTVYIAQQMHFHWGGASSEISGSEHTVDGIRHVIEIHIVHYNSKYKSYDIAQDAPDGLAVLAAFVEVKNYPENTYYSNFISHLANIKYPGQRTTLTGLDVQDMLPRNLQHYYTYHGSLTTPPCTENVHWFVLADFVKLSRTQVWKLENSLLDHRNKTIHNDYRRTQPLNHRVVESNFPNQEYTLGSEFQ
T8 sequence (P43166 whole entry): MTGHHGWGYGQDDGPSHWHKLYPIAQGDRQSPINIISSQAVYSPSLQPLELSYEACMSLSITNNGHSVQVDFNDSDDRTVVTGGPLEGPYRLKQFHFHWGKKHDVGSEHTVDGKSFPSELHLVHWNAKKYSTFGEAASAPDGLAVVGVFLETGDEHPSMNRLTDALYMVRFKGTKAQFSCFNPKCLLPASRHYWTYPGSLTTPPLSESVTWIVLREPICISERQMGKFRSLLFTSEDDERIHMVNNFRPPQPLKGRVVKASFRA
T10 sequence (O43570 25-354): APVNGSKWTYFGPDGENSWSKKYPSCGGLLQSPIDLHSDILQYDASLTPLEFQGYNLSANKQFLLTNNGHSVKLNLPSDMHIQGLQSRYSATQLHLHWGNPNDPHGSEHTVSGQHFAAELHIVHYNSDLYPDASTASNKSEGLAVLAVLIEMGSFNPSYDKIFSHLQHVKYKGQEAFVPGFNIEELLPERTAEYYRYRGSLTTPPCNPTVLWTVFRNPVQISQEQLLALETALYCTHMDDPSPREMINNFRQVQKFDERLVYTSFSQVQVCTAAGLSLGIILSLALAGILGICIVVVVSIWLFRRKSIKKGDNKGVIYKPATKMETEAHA
Procedure for CAIV: as §1, §2, §6, §4, §5
Procedure for CAVA: as §1, §2, §6, §4, §5
Procedure for CAVII: as §1, §2, §6, §4, §5
Procedure for CAXIV: as §1, §2, §6, §4, §5

Regarding `CCOC(=O)c1sc(N(CCC(=O)OC)c2ccc(S(N)(=O)=O)cc2)nc1C` [Compound 32, Ethyl 2-((3-Methoxy-3-oxopropyl)(4-sulfamoylphenyl)amino)-4-methylthiazole-5-carboxylate], the melting point fell in the range of 140 to 141 °C. Besides, on CAI [1], the “Intrinsic Gibbs energy change (ΔGint), CAI” value was -12.5 kcal/mol and the Kd was 0.83 µM. In addition, on CAII [2], the “Intrinsic Gibbs energy change (ΔGint), CAII” value was -14.6 kcal/mol and the Kd was found to be 0.053 µM. Further, at CAIII, the Kd is ≥ 200 µM. Moreover, on CAIV, the “Intrinsic Gibbs energy change (ΔGint), CAIV” value is -12.7 kcal/mol and the Kd amounted to 2 µM. At CAVA (setting [16]), the Kd was ≥ 200 µM. On CAVB [3], the “Intrinsic Gibbs energy change (ΔGint), CAVB” value was -14.9 kcal/mol and the Kd amounted to 0.03 µM. Also, at CAVI, the “Intrinsic Gibbs energy change (ΔGint), CAVI” value is -12.4 kcal/mol and the Kd was 10 µM. For the same compound, on CAVII, the “Intrinsic Gibbs energy change (ΔGint), CAVII” value is -14.2 kcal/mol and the Kd is 0.13 µM. Besides, at CAIX [4], the “Intrinsic Gibbs energy change (ΔGint), CAIX” value is -14.1 kcal/mol and the Kd was determined as 0.19 µM. On CAXII [5], the “Intrinsic Gibbs energy change (ΔGint), CAXII” value is -11.7 kcal/mol and the Kd was 7.7 µM. Also, on CAXIV, the “Intrinsic Gibbs energy change (ΔGint), CAXIV” value was -13.8 kcal/mol and the Kd came to 0.77 µM. Besides, the “ΔHobs, CAVB” value on CAVB [6] (50 mM sodium phosphate buffer, 100 mM NaCl) was -9.6 kcal/mol. The Kd at CAVB [6] (read-out: Observed Dissociation Constant (Kd_obs), CAVB, ITC data in brackets) came out at 0.041 µM. For the same compound, in data set [7], the pKa came to 9.7. The “Intrinsic Gibbs energy change (ΔGint), CAXIII” value at CAXIII [8] was -13.1 kcal/mol. On CAXIII [9], the Kd was found to be 0.33 µM.
For the compound `NC(=S)N(CCC(=O)O)c1ccc(S(N)(=O)=O)cc1` [Compound 26], the Kd on CAI [10] is 10 µM; at CAII [11] it was 5 µM; on CAIX [12] it was 10 µM; at CAXII [13], 33 µM.
For `NS(=O)(=O)c1ccc(N(CCC(=O)O)c2nc(-c3ccc(Cl)cc3)cs2)cc1` [Compound 35], the Kd on CAI [10] is 0.025 µM; on CAII [11] it was 0.1 µM; at CAIX [12], 0.56 µM; at CAXII [13], 0.2 µM; at CAXIII [14] it was 0.53 µM.
As for `COC(=O)CCN(c1ccc(S(N)(=O)=O)cc1)c1nc(C)cs1` [Compound 28, Methyl 3-((4-Methylthiazol-2-yl)(4-sulfamoylphenyl)amino)propanoate], the melting point fell in the range of 72 to 73 °C. On CAI [1], the “Intrinsic Gibbs energy change (ΔGint), CAI” value was -15 kcal/mol and the Kd stood at 0.037 µM. Besides, on CAII [2], the “Intrinsic Gibbs energy change (ΔGint), CAII” value was -15.3 kcal/mol and the Kd worked out at 0.045 µM. Also, at CAIII, the Kd was ≥ 200 µM. Also, at CAIV, the “Intrinsic Gibbs energy change (ΔGint), CAIV” value was -13.6 kcal/mol and the Kd came out at 1.1 µM. For the same compound, the “Intrinsic Gibbs energy change (ΔGint), CAVA” value at CAVA (37 °C, calculated (Equation 5)) is -11.2 kcal/mol. Besides, the Kd on CAVA (200 µM the weakest detectable Kd_obs, read-out: Kd_obs, CAVA) was 50 µM. At CAVB [3], the “Intrinsic Gibbs energy change (ΔGint), CAVB” value was -15.2 kcal/mol and the Kd was 0.046 µM. Moreover, on CAVI, the “Intrinsic Gibbs energy change (ΔGint), CAVI” value was -13.2 kcal/mol and the Kd stood at 7.1 µM. In addition, on CAVII, the “Intrinsic Gibbs energy change (ΔGint), CAVII” value is -15.1 kcal/mol and the Kd was found to be 0.077 µM. For the same compound, on CAIX [4], the “Intrinsic Gibbs energy change (ΔGint), CAIX” value was -15.8 kcal/mol and the Kd worked out at 0.033 µM. On CAXII [5], the “Intrinsic Gibbs energy change (ΔGint), CAXII” value is -14.3 kcal/mol and the Kd is 0.25 µM. For the same compound, on CAXIV, the “Intrinsic Gibbs energy change (ΔGint), CAXIV” value was -16.4 kcal/mol and the Kd stood at 0.029 µM. In addition, on CAII [15], the Kd was found to be 0.059 µM. Moreover, the pKa in [7] was determined as 10.1. Further, the “Intrinsic Gibbs energy change (ΔGint), CAXIII” value at CAXIII [8] is -13.8 kcal/mol. Also, the Kd on CAXIII [9] came to 0.25 µM.
`CCOC(=O)c1sc(N(CCC(=O)O)c2ccc(S(N)(=O)=O)cc2)nc1C` [Compound 31, 3-((5-(Ethoxycarbonyl)-4-methylthiazol-2-yl)(4-sulfamoylphenyl)amino)propanoic acid] showed a melting point of 221 to 222 °C. On CAI [1], the “Intrinsic Gibbs energy change (ΔGint), CAI” value was -12.5 kcal/mol and the Kd was 2 µM. Also, at CAII [2], the “Intrinsic Gibbs energy change (ΔGint), CAII” value was -13.5 kcal/mol and the Kd turned out to be 0.91 µM. In addition, the Kd on CAIII is ≥ 200 µM. Moreover, on CAIV, the “Intrinsic Gibbs energy change (ΔGint), CAIV” value is -12.5 kcal/mol and the Kd is 6.7 µM. Moreover, the Kd on CAVA (setting [16]) is ≥ 200 µM. Moreover, at CAVB [3], the “Intrinsic Gibbs energy change (ΔGint), CAVB” value was -11.5 kcal/mol and the Kd was 20 µM. For the same compound, on CAVI, the “Intrinsic Gibbs energy change (ΔGint), CAVI” value was -12.4 kcal/mol and the Kd stood at 24 µM. Further, on CAVII, the “Intrinsic Gibbs energy change (ΔGint), CAVII” value is -13.1 kcal/mol and the Kd came out at 1.7 µM. Moreover, on CAIX [4], the “Intrinsic Gibbs energy change (ΔGint), CAIX” value is -14.3 kcal/mol and the Kd turned out to be 0.36 µM. Also, on CAXII [5], the “Intrinsic Gibbs energy change (ΔGint), CAXII” value is -12.6 kcal/mol and the Kd turned out to be 3.8 µM. On CAXIV, the “Intrinsic Gibbs energy change (ΔGint), CAXIV” value was -13.8 kcal/mol and the Kd amounted to 2 µM. Further, the Kd at CAII [15] was found to be 0.86 µM. Also, the pKa in data set [7] came to 10.1. Moreover, the “Intrinsic Gibbs energy change (ΔGint), CAXIII” value on CAXIII [8] is -13.4 kcal/mol. At CAXIII [9], this compound returned a Kd of 0.45 µM.
In the case of `Cc1cc(C)n(C(=O)C2CC(=O)N(c3ccc(S(N)(=O)=O)cc3)C2)n1` (stereo not drawn) [Compound 21], the Kd at CAI [10] was 0.25 µM; on CAII [11], 0.066 µM; on CAIX [12], 0.22 µM; on CAXII [13], 1.4 µM.

The values are drawn from paper PMC9033141, “Beta and Gamma Amino Acid-Substituted Benzenesulfonamides as Inhibitors of Human Carbonic Anhydrases” (Pharmaceuticals, 2022).
